According to patent US11173166B2, “Composition and uses thereof” (BH Biotech Pty Ltd, priority 2017, dated 2021):

Tests used:
NLRP3 inflammasome = NLRP3 inflammasome (Homo sapiens, UniProt Q96P20); test: THP-1 NLRP3 inflammasome assay (LPS priming plus ATP stimulation, IL-1β ELISA), with Chou-Talalay CI analysis; details: for inhibition of NLRP3 inflammasome activation (IL-1β production), in words: single agent, THP-1 primed with LPS, stimulated with ATP
Method: Absorbance data obtained from the ELISA assays was transformed into relative inhibition using Microsoft Excel. Dose-response curves and statistical analyses were generated using GraphPad Prism software. To generate dose-response curves, first the dose was transformed into Log10, then curves were generated using the non-linear regression option log[inhibitor] vs response-variable slope (four parameter). Statistical comparisons between treatment and control groups were performed using One Way ANOVA with GraphPad Prism statistical software.
The latest version of CompuSyn software was used to analyse data and generate CI and graphical representations of drug-drug interactions.
Monocytes were first primed for three hours with 100 nM LPS, then stimulated with ATP.

[1] = Solubility behaviour in the cell-based assay system / aqueous solution
From the text: The interaction between ashwagandha and turmeric plant extracts was studied. […] To overcome this experimental limitation low doses at approximately the Fa 0.2 range were focused on, and the mean relative inhibition values of the single extract versus the ashwagandha plus turmeric plant extract combination were compared.
The combination of turmeric and pepper (Piper nigrum) plant extracts was investigated.

NLRP3 inflammasome, sequence (Q96P20 whole entry): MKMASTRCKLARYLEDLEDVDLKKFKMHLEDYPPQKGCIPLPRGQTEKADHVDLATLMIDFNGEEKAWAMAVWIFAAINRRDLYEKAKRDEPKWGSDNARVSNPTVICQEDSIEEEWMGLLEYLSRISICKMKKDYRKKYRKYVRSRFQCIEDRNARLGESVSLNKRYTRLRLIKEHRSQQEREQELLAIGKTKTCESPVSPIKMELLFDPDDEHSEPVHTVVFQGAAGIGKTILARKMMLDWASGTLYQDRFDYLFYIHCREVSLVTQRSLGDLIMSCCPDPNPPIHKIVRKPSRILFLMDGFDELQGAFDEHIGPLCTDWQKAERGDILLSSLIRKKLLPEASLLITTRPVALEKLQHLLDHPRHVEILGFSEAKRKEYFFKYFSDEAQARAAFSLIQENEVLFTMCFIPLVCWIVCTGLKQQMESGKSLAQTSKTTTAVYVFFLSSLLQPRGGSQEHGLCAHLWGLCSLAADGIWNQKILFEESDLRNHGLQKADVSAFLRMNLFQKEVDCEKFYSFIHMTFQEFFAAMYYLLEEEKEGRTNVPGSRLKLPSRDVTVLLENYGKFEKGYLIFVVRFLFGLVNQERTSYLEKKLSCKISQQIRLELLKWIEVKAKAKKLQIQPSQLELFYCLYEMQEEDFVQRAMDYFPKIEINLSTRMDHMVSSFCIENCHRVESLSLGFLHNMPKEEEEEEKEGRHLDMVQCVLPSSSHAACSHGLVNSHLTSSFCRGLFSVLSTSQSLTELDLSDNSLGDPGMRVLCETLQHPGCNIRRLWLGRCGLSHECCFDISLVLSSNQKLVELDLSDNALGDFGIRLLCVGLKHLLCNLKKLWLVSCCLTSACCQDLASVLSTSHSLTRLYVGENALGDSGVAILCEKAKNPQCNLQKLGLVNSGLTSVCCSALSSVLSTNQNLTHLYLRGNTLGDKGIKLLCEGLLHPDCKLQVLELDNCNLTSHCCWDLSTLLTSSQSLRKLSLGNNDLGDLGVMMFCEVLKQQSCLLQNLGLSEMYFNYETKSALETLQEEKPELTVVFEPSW

Row | interaction in drug combination experiments (polynonogram) (NLRP3 inflammasome; combined with withaferin A, curcumin and piperine) | solubility behaviour [1] | inflammasome inhibition, highest observed (NLRP3 inflammasome; limited because compound came out of solution at higher doses) [%] | Compound | inhibition of NLRP3 inflammasome activation (IL-1β production), in words (NLRP3 inflammasome) | efficacy relative to vehicle control (ANOVA) (NLRP3 inflammasome; low dose: below Fa 0.4 for pure compounds, approximately Fa 0.2 for extracts)
1 | striking antagonism |  |  | COc1cc(C2Oc3cc([C@H]4Oc5cc(O)cc(O)c5C(=O)[C@@H]4O)ccc3OC2CO)ccc1O (stereo partly drawn) [silybin] | effectively inhibiting inflammation | 
2 |  | came out of solution at the higher doses | ≤ 35 | O=C(/C=C/C=C/c1ccc2c(c1)OCO2)N1CCCCC1 [piperine] |  | 
3 |  |  |  | CC1=C(CO)C(=O)O[C@@H]([C@@H](C)[C@H]2CC[C@H]3[C@@H]4C[C@H]5O[C@]56[C@@H](O)C=CC(=O)[C@]6(C)[C@H]4CC[C@]23C)C1 [withaferin A] | inhibit NLRP3 inflammasome activity | efficacious relative to vehicle control
